According to ChEMBL document CHEMBL1139594, “Azinomycin inspired bisepoxides: influence of linker structure on in vitro cytotoxicity and DNA interstrand cross-linking” (2005):

Experiments:
Format in all cases: functional
[1] = Mean cytotoxicity towards NCI panel of 60 human cancer cell lines; conditions: read-out: LC50 (the source's name)
[2] = Total growth inhibition of NCI panel of 60 human cancer cell lines
[3] = Growth inhibitory concentration against NCI panel of 60 human cancer cell lines

SMILES	CC50 [1]	TGI [2]	GI50 [3]
COc1cc(C(=O)O[C@H](C(=O)NCCN(C)CCNC(=O)[C@@H](OC(=O)c2cc(OC)cc3c(C)cccc23)[C@]2(C)CO2)[C@]2(C)CO2)c2cccc(C)c2c1	14400 nM	350 nM	28 nM
COc1cc(C(=O)O[C@H](C(=O)NCCNC(=O)[C@@H](OC(=O)c2cc(OC)cc3c(C)cccc23)[C@]2(C)CO2)[C@]2(C)CO2)c2cccc(C)c2c1	62000 nM	2400 nM	72 nM
COc1cc(C(=O)O[C@H](C(=O)NCCCNC(=O)[C@@H](OC(=O)c2cc(OC)cc3c(C)cccc23)[C@]2(C)CO2)[C@]2(C)CO2)c2cccc(C)c2c1	3200 nM	210 nM	31 nM
COc1cc(C(=O)O[C@H](C(=O)NCCCCNC(=O)[C@@H](OC(=O)c2cc(OC)cc3c(C)cccc23)[C@]2(C)CO2)[C@]2(C)CO2)c2cccc(C)c2c1	14800 nM	550 nM	53 nM
COc1cc(C(=O)O[C@H](C(=O)NCCCCCNC(=O)[C@@H](OC(=O)c2cc(OC)cc3c(C)cccc23)[C@]2(C)CO2)[C@]2(C)CO2)c2cccc(C)c2c1	50000 nM	3400 nM	178 nM
COc1cc(C(=O)O[C@H](C(N)=O)[C@]2(C)CO2)c2cccc(C)c2c1	33000 nM	2000 nM	214 nM
